Test results published in patent US20160297761A1, “NOVEL INHIBITORS OF GLUTAMINASE” (RHIZEN PHARMACEUTICALS SA, priority 2014, published 2016).
Where two headings read alike, the source gives them in different places.

What was measured:
[1] = molecular target: T1, L-glutaminase present in mice brain homogenate (Glutaminase(Brain)) (Mus musculus, UniProt D3Z7P3); assay: Glutaminase enzyme activity using glutaminase enzyme from mice brain/kidney homogenate (Nessler's reagent, ammonia); format: biochemical; details: for inhibition at 0.1 µM: read-out: Glutaminase(Brain) activity % inhibition 0.1 μM; for inhibition at 1 µM: read-out: Glutaminase(Brain) activity % inhibition @1 μM
T1 sequence (D3Z7P3 55-674): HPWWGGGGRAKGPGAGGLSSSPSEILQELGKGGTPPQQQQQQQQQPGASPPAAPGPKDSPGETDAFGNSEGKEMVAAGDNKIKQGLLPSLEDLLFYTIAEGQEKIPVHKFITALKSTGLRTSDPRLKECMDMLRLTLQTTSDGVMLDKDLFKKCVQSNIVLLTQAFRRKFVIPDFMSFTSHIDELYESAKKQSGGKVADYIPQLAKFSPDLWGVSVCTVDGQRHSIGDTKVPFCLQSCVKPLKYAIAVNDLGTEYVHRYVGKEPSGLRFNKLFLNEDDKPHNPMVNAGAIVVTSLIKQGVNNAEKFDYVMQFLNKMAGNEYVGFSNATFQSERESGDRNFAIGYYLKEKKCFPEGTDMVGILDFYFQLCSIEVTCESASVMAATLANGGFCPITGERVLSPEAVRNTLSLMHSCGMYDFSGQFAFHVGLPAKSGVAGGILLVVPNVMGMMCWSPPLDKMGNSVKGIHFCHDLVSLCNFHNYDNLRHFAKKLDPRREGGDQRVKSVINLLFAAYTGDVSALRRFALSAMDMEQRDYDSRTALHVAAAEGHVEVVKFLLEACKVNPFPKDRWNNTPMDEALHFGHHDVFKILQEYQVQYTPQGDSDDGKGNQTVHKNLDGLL
Procedure: Assay 3: Determination of Glutaminase Enzyme Activity Using Glutaminase
Enzyme from Mice Brain/Kidney
Step 1: Preparation of Tissue Homogenates: Male Balb/c mice were administered 0.28 M ammonium chloride in drinking water for 7 days. The animals were sacrificed and brain/kidney organs collected on dry ice. […] The tissue was homogenized and supernatants were stored at −80° C. until the enzyme assay was performed.
Aim: Compounds were assessed for their ability to inhibit the enzymatic activity of L-glutaminase present in mice brain/kidney homogenate.
Protocol: The assay was performed using a colorimetric method using Nessler's Reagent by quantifying the amount of ammonia formed as a by product during the enzymatic conversion of L-glutamine to glutamate. In the routine assay, 16 μl of tissue homogenate is added to 33 μl of Tris-Hcl phosphate buffer (pH 8) along with 1 μl of DMSO/test compound containing the desired final concentration and vortexed briefly. 50 μl of 20 mM L-glutamine Tris buffer is added to start the reaction and incubated for 15 minutes at 37° C. The ammonia formed is detected by adding 20 μl of reaction mixture to cold water in a 96 well plate followed by 20 μl of Nessler's reagent. The colour developed is measured at 450 nm. Data Analysis: Activity of the test compound is reported as % inhibition and the data is analyzed using Graphpad Prism (Graphpad software; San Diego Calif.) for IC50 determination.

cancer cell lines = assay: In vitro cell proliferation assay in cancer cell lines (MTT dye reduction, 72 h); format: cell-based; details: cancer cell line not named, 10% FBS media
Procedure: Assay 4: In Vitro Cell Proliferation Assay in Cancer Cell Lines
Growth inhibition assays were carried out using 10% FBS supplemented media. Cells were seeded at a concentration of 5000-20,000 cells/well in a 96-well plate. Test compounds at a concentration range from 0.01 to 10000 nM were added after 24 hours. Growth was assessed using the 3-[4,5-dimethylthiazol-2-yl]-2,5-diphenyltetrazolium bromide (MIT) dye reduction test at 0 h (prior to the addition of the test compound) and 72 hours after the addition of test compound. Absorbance was read on a Fluostar Optima (BMG Labtech, Germany) at a wave length of 450 nm. Data were analysed using GraphPad Prism and percent inhibition due to the test compound compared to the control was calculated accordingly.

Row | SMILES | inhibition at 0.1 µM [1] | inhibition at 1 µM [1] | GI50 (cancer cell lines) | inhibition at 0.1 µM ([1]; 0.1 μM, mice brain homogenate) | inhibition at 1 µM ([1]; 1 μM, mice brain homogenate) | melting point
1 | O=C(Cc1cccc(OC(F)(F)F)c1)Nc1ccc(CCCCc2nnc(NC(=O)Cc3ccccn3)s2)cn1 [Example 3, 2-(Pyridin-2-yl)-N-(5-(4-(6-(2-(3-(trifluoromethoxy)phenyl)acetamido)pyridin-3-yl)butyl)-1,3,4-thiadiazol-2-yl)acetamide] | 50 to 75% | 75 to 100% | 400 to 1000 nM | – | – | –
2 | Cc1nc(NC(=O)Cc2cccc(OC(F)(F)F)c2)ccc1CCCCc1nnc(NC(=O)Cc2ccccn2)s1 [Example-9, N-(6-Methyl-5-(4-(5-(2-(pyridin-2-yl)acetamido)-1,3,4-thiadiazol-2-yl)butyl)pyridin-2-yl)-2-(3-(trifluoromethoxy)phenyl)acetamide] | – | – | – | < 25% | < 25% | 96 to 101 °C
3 | O=C(Cc1cccnc1)Nc1ccc(CCCCc2nnc(NC(=O)Cc3cccc(F)c3)s2)cn1 [Example-20, 2-(3-Fluorophenyl)-N-(5-(4-(6-(2-(pyridin-3-yl)acetamido)pyridin-3-yl)butyl)-1,3,4-thiadiazol-2-yl)acetamide] | – | – | 400 to 1000 nM | 75 to 100% | 75 to 100% | –
4 | CCC(Cl)C(=O)Nc1nnc(CCCCc2ccc(NC(=O)Cc3cccc(OC(F)(F)F)c3)nc2)s1 (stereo not shown) [Example-24, 2-Chloro-N-(5-(4-(6-(2-(3-(trifluoromethoxy)phenyl)acetamido)pyridin-3-yl)butyl)-1,3,4-thiadiazol-2-yl)butanamide] | – | – | 400 to 1000 nM | < 25% | < 25% | –
5 | O=C(Cc1cccc(OC(F)(F)F)c1)Nc1ccc(CCCCc2nnc(NC(=O)Cc3cnccn3)s2)cn1 [Example-28, 2-(Pyrazin-2-yl)-N-(5-(4-(6-(2-(3-(trifluoromethoxy)phenyl)acetamido)pyridin-3-yl)butyl)-1,3,4-thiadiazol-2-yl)acetamide] | – | – | 1000 to 5000 nM | 75 to 100% | 50 to 75% | –
6 | O=C(Cc1cccc(OC(F)(F)F)c1)Nc1ccc(CCCCc2nnc(NC(=O)Cc3ccccn3)s2)c(F)n1 [Example-29, N-(6-fluoro-5-(4-(5-(2-(pyridin-2-yl)acetamido)-1,3,4-thiadiazol-2-yl)butyl)pyridin-2-yl)-2-(3-(trifluoromethoxy)phenyl)acetamide] | – | – | 1000 to 5000 nM | 50 to 75% | 75 to 100% | –
7 | CS(=O)(=O)Nc1cccc(CC(=O)Nc2nnc(CCCCc3ccc(NC(=O)Cc4cccc(OC(F)(F)F)c4)nc3)s2)c1 [Example-30, 2-(3-(Methylsulfonamido)phenyl)-N-(5-(4-(6-(2-(3-(trifluoromethoxy)phenyl)acetamido)pyridin-3-yl)butyl)-1,3,4-thiadiazol-2-yl)acetamide] | – | – | 1000 to 5000 nM | 50 to 75% | 75 to 100% | –
8 | CS(=O)(=O)Nc1ccc(CC(=O)Nc2nnc(CCCCc3ccc(NC(=O)Cc4cccc(OC(F)(F)F)c4)nc3)s2)cc1 [Example-31, 2-(4-(Methylsulfonamido)phenyl)-N-(5-(4-(6-(2-(3-(trifluoromethoxy)phenyl)acetamido)pyridin-3-yl)butyl)-1,3,4-thiadiazol-2-yl)acetamide] | – | – | 5000 to 10000 nM | 50 to 75% | 75 to 100% | –
9 | O=C(Cc1ccccn1)Nc1ccc(CCCCc2nnc(NC(=O)Cc3cccc(OC(F)(F)F)c3)s2)c(F)n1 [Example-32, N-(6-fluoro-5-(4-(5-(2-(3-(trifluoromethoxy)phenyl)acetamido)-1,3,4-thiadiazol-2-yl)butyl)pyridin-2-yl)-2-(pyridin-2-yl)acetamide] | – | – | 400 to 1000 nM | < 25% | 75 to 100% | –
10 | O=C(Cc1ccccc1)Nc1nnc(C2CCC(c3nnc(NC(=O)Cc4ccccc4)s3)CC2)s1 (stereo not shown) [Example-101, N,N′-(5, 5′-(cyclohexane-1,4-diyl)bis(1,3,4-thiadiazole-5,2-diyl))bis(2-phenylacetamide)] | – | – | – | – | – | 281 to 283 °C
11 | O=C(Cc1cccc(OC(F)(F)F)c1)Nc1ccc(CC2CC(c3nnc(NC(=O)Cc4ccccn4)s3)C2)cn1 (stereo not shown) [Example-107, 2-(Pyridin-2-yl)-N-(5-(3-((6-(2-(3-(trifluoromethoxy)phenyl)acetamido)pyridin-3-yl)methyl)cyclobutyl)-1,3,4-thiadiazol-2-yl)acetamide] | – | – | 400 to 1000 nM | 25 to 50% | 50 to 75% | –
12 | O=C(Cc1cccc(OC(F)(F)F)c1)Nc1ccc(CC2CC(c3nnc(NC(=O)Cc4cccnc4)s3)C2)cn1 (stereo not shown) [Example-108, 2-(Pyridin-3-yl)-N-(5-(3-((6-(2-(3-(trifluoromethoxy)phenyl)acetamido)pyridin-3-yl)methyl)cyclobutyl)-1,3,4-thiadiazol-2-yl)acetamide] | – | – | 100 to 400 nM | 75 to 100% | 75 to 100% | –

Now from value to compound:

Row | inhibition at 0.1 µM [1] | inhibition at 1 µM [1] | GI50 (cancer cell lines) | inhibition at 0.1 µM ([1]; 0.1 μM, mice brain homogenate) | inhibition at 1 µM ([1]; 1 μM, mice brain homogenate) | melting point | SMILES
13 | – | – | < 100 nM | 75 to 100% | 75 to 100% | – | O=C(Cc1cccnc1)Nc1ccc(CCCCc2nnc(NC(=O)Cc3cccc(OC(F)(F)F)c3)s2)cn1 [Example-11, 2-(Pyridin-3-yl)-N-(5-(4-(5-(2-(3-(trifluoromethoxy)phenyl)acetamido)-1,3,4-thiadiazol-2-yl)butyl)pyridin-2-yl)acetamide]
14 | – | – | < 100 nM | 25 to 50% | 50 to 75% | – | O=C(Cc1cccc(OC(F)(F)F)c1)Nc1ccc(CCCCc2nnc(NC(=O)Cc3cccc(OC(F)(F)F)c3)s2)cn1 [Example-16, 2-(3-(Trifluoromethoxy)phenyl)-N-(5-(4-(5-(2-(3-(trifluoromethoxy)phenyl)acetamido)-1,3,4-thiadiazol-2-yl)butyl)pyridin-2-yl)acetamide]
15 | – | – | 100 to 400 nM | 25 to 50% | 75 to 100% | – | N#Cc1cccc(CC(=O)Nc2nnc(CCCCc3ccc(NC(=O)Cc4cccc(OC(F)(F)F)c4)nc3)s2)c1 [Example-17, 2-(3-Cyanophenyl)-N-(5-(4-(6-(2-(3-(trifluoromethoxy)phenyl)acetamido)pyridin-3-yl)butyl)-1,3,4-thiadiazol-2-yl)acetamide]
16 | – | – | 100 to 400 nM | 50 to 75% | 75 to 100% | – | O=C(Cc1cccnc1)Nc1ccc(CCCCc2nnc(NC(=O)Cc3cccc(Cl)c3)s2)cn1 [Example-18, 2-(3-Chlorophenyl)-N-(5-(4-(6-(2-(pyridin-3-yl)acetamido)pyridin-3-yl)butyl)-1,3,4-thiadiazol-2-yl)acetamide]
17 | – | – | < 100 nM | 50 to 75% | 75 to 100% | – | O=C(Cc1cccc(OC(F)(F)F)c1)Nc1ccc(CCCCc2nnc(NC(=O)Cc3cccnc3)s2)c(F)n1 [Example-21, N-(6-Fluoro-5-(4-(5-(2-(pyridin-3-yl)acetamido)-1,3,4-thiadiazol-2-yl)butyl)pyridin-2-yl)-2-(3-(trifluoromethoxy)phenyl)acetamide]
18 | – | – | < 100 nM | 25 to 50% | 75 to 100% | – | O=C(Cc1ccccn1)Nc1ccc(CCCCc2nnc(NC(=O)Cc3cccnc3)s2)c(F)n1 [Example-38, N-(6-fluoro-5-(4-(5-(2-(pyridin-3-yl)acetamido)-1,3,4-thiadiazol-2-yl)butyl)pyridin-2-yl)-2-(pyridin-2-yl)acetamide]
19 | – | – | < 100 nM | 50 to 75% | 75 to 100% | – | O=C(Cc1cccnc1)Nc1ccc(CC2CC(c3nnc(NC(=O)Cc4cccc(OC(F)(F)F)c4)s3)C2)cn1 (stereo not shown) [Example-109, 2-(Pyridin-3-yl)-N-(5-((3-(5-(2-(3-(trifluoromethoxy)phenyl)acetamido)-1,3,4-thiadiazol-2-yl)cyclobutyl)methyl)pyridin-2-yl)acetamide]
